Results published in patent publication US8921363B2, “Derivatives of 1 H-isoindol-3-amine, 1 H-iso-aza-indol-3amine, 3,4-dihydroisoquinolin-1-amine, and 1,4-dihydroisoquinolin-3-amine as beta-secretase inhibitors” (Amgen Inc., priority 2010, dated 2014).

Legend:
BACE1 = BACE1 (Homo sapiens, UniProt P56817); assay: In vitro enzymatic BACE FRET assay; format: biochemical
Procedure: In Vitro Enzymatic BACE FRET (fluorescence resonance energy transfer) Assay (Enzyme Assay data in the Example Table I)
The assay buffer used in this screen is 0.05 M acetate, pH 4.2, 10% DMSO final, 100 uM genapol (which is a nonionic detergent, below its Critical Micelle Concentration). […] This assay is effectively started by the addition of FRET substrate (50 nM) and the combination is incubated for one hour. The FRET assay is terminated with by addition of Tris buffer, which raises the pH to neutrality, and the fluorescence is determined. The FRET substrate is a peptide with commercially available fluorophore and quencher, on opposite sides of the BACE cleavage site. Proteolytic cleavage of the FRET substrate releases quenching of fluorescence (excitation […] and […]).

[1] = system: Aβ40 in conditioned medium of cells expressing amyloid precursor protein; assay: In vitro BACE cell-based assay (HEK cell assay, Aβ40 sandwich ELISA); settings: Homo sapiens, HEK293; average IC50; Aβ40 after 24 h incubation

BACE1, sequence (P56817 46-501): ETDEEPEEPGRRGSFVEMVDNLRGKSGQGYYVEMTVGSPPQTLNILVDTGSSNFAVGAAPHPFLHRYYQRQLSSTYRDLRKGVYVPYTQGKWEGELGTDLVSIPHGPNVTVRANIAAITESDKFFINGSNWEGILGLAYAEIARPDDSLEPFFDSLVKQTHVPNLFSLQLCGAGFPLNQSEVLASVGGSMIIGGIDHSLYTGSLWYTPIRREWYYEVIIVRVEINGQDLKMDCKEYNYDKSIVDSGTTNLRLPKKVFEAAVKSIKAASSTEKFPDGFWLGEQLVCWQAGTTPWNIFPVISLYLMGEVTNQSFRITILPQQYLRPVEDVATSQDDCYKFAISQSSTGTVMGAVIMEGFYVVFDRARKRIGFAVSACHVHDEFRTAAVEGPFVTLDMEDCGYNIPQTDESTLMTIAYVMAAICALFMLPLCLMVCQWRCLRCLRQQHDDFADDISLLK

Row | SMILES | IC50 (BACE1) [nM] | IC50 [1] [nM]
1 | NC1=NC2(c3cc(-c4cccnc4F)ccc3Oc3c2cc(-c2ccnc(F)c2)nc3F)c2ccccc21 (racemic) [Example 5e, 1-fluoro-7-(2-fluoropyridin-3-yl)-3-(2-fluoropyridin-4-yl)spiro[chromeno[2,3-c]pyridine-5,1′-isoindol]-3′-amine] | 1 | 8
2 | NC1=NC2(c3cc(-c4cccnc4F)ccc3Oc3c2cc(C2=CCOCC2)nc3F)c2ccccc21 (racemic) [Example 6, 3-(3,6-dihydro-2H-pyran-4-yl)-1-fluoro-7-(2-fluoropyridin-3-yl)spiro[chromeno[2,3-c]pyridine-5,1′-isoindol]-3′-amine] | 1 | 3
3 | NC1=NC2(c3cc(-c4cccnc4F)ccc3Oc3c2cc(C2=CCCOC2)nc3F)c2ccccc21 (racemic) [Example 7, 3-(5,6-dihydro-2H-pyran-3-yl)-1-fluoro-7-(2-fluoropyridin-3-yl)spiro[chromeno[2,3-c]pyridine-5,1′-isoindol]-3′-amine] | 1 | 13
4 | NC1=NC2(c3cc(-c4cccnc4F)ccc3Oc3c2cc(N2CCOCC2)nc3F)c2ccccc21 (racemic) [Example 8, 1-fluoro-7-(2-fluoropyridin-3-yl)-3-morpholinospiro[chromeno[2,3-c]pyridine-5,1′-isoindol]-3′-amine] | 4.2 | 14
5 | NC1=NC2(c3cc(-c4cccnc4F)ccc3Oc3c2cc(N2CCC(F)(F)C2)nc3F)c2ccccc21 (racemic) [Example 9, 3-(3,3-difluoropyrrolidin-1-yl)-1-fluoro-7-(2-fluoropyridin-3-yl)spiro[chromeno[2,3-c]pyridine-5,1′-isoindol]-3′-amine] | 5.3 | 27
6 | NC1=NC2(c3cc(-c4cccnc4F)ccc3Oc3cnc(-c4ccnc(F)c4)cc32)c2ccccc21 (racemic) [Example 10, 7-(2-fluoropyridin-3-yl)-3-(2-fluoropyridin-4-yl)spiro[chromeno[2,3-c]pyridine-5,1′-isoindol]-3′-amine] | 1 | 12
7 | NC1=NC2(c3cc(Br)ccc3Oc3cnc(Cl)cc32)c2ccccc21 (racemic) [Example 10c, 7-bromo-3-chlorospiro[chromeno[2,3-c]pyridine-5,1′-isoindol]-3′-amine] | 6940 | 64.5
8 | NC1=NC2(c3cc(-c4cccnc4F)ccc3Oc3cnc(Cl)cc32)c2ccccc21 (racemic) [Example 10d, 3-chloro-7-(2-fluoropyridin-3-yl)spiro[chromeno[2,3-c]pyridine-5,1′-isoindol]-3′-amine] | 36 | 140
9 | NC1=NC2(c3cc(-c4cccnc4F)ccc3Oc3cnc(C4=CCOCC4)cc32)c2ccccc21 (racemic) [Example 11, 3-(3,6-dihydro-2H-pyran-4-yl)-7-(2-fluoropyridin-3-yl)spiro[chromeno[2,3-c]pyridine-5,1′-isoindol]-3′-amine] | 3 | 12
10 | NC1=NC2(c3cc(-c4cccnc4F)ccc3Oc3cnc(C4CCOCC4)cc32)c2ccccc21 (racemic) [Example 12, 7-(2-fluoropyridin-3-yl)-3-(tetrahydro-2H-pyran-4-yl)spiro[chromeno[2,3-c]pyridine-5,1′-isoindol]-3′-amine] | 4 | 13
11 | CC(C)(C)C#Cc1cc2c(cn1)Oc1ccc(-c3cccnc3F)cc1C21N=C(N)c2ccccc21 (racemic) [Example 13, 3-(3,3-dimethylbut-1-ynyl)-7-(2-fluoropyridin-3-yl)spiro[chromeno[2,3-c]pyridine-5,1′-isoindol]-3′-amine] | 6 | 70
12 | NC1=NC2(c3cc(-c4cccnc4F)ccc3Oc3c2cc(-c2ccnc(F)c2)nc3F)c2ncccc21 (racemic) [Example 15, 1-fluoro-7-(2-fluoropyridin-3-yl)-3-(2-fluoropyridin-4-yl)spiro[chromeno[2,3-c]pyridine-5,7′-pyrrolo[3,4-b]pyridin]-5′-amine] | 1 | 11
13 | NC1=NC2(c3ccccc3O1)c1cc(-c3cccnc3F)ccc1Oc1cnc(C3=CCCOC3)cc12 (racemic) [Example 18, 3′-(5,6-dihydro-2H-pyran-3-yl)-7′-(2-fluoropyridin-3-yl)spiro[benzo[e][1,3]oxazine-4,5′-chromeno[2,3-c]pyridin]-2-amine] | 2 | 122
14 | NC1=NC2(c3cc(-c4cccnc4F)ccc3Oc3cnc(Cl)cc32)c2ncccc2O1 (racemic) [Example 21, 3-chloro-7-(2-fluoropyridin-3-yl)spiro[chromeno[2,3-c]pyridine-5,4′-pyrido[2,3-e][1,3]oxazin]-2′-amine] | 370 | > 10000
15 | NC1=NC2(c3cc(-c4cccnc4F)ccc3Oc3cnc(-c4ccnc(F)c4)cc32)c2cccnc2O1 (racemic) [Example 24, 7-(2-fluoropyridin-3-yl)-3-(2-fluoropyridin-4-yl)spiro[chromeno[2,3-c]pyridine-5,4-pyrido[3,2-e][1,3]oxazin]-2′-amine] | 1.8 | 320
16 | NC1=N[C@@]2(c3cc(-c4cccnc4F)ccc3Oc3c2cc(-c2ccnc(F)c2)nc3F)c2ccccc21 (single isomer, unassigned) [Example 5-A] | 18.2 | 1860
17 | NC1=N[C@]2(c3cc(-c4cccnc4F)ccc3Oc3c2cc(-c2ccnc(F)c2)nc3F)c2ccccc21 (single isomer, unassigned) [Example 5-B] | 0.6 | 11

Row | SMILES | IC50 (BACE1) [nM] | IC50 [1] [nM]
18 | NC1=N[C@@]2(c3cc(-c4cccnc4F)ccc3Oc3c2cc(C2=CCCOC2)nc3F)c2ccccc21 (single isomer, unassigned) [Example 7-A] | 78 | 336
19 | NC1=N[C@]2(c3cc(-c4cccnc4F)ccc3Oc3cnc(-c4cccnc4F)cc32)c2ccccc21 (single isomer, unassigned) [Example 10-C] | 900 | > 10000
20 | NC1=N[C@@]2(c3cc(-c4cccnc4F)ccc3Oc3cnc(-c4cccnc4F)cc32)c2ccccc21 (single isomer, unassigned) [Example 10-D] | > 10000 | > 10000
21 | NC1=N[C@]2(c3cc(-c4cccnc4F)ccc3Oc3c2cc(-c2ccnc(F)c2)nc3F)c2cnccc21 (single isomer, unassigned) [Example 14-A] | 0.4 | 8
22 | NC1=N[C@@]2(c3cc(-c4cccnc4F)ccc3Oc3c2cc(-c2ccnc(F)c2)nc3F)c2cnccc21 (single isomer, unassigned) [Example 14-B] | 107 | 2460
23 | NC1=N[C@@]2(c3cc(Br)ccc3Oc3c2cc(Cl)nc3F)c2cnccc21 (single isomer, unassigned) [Example 14c-1] | > 10000 | > 10000
24 | NC1=N[C@]2(c3cc(Br)ccc3Oc3c2cc(Cl)nc3F)c2cnccc21 (single isomer, unassigned) [Example 14c-2] | 3440 | > 10000
25 | NC1=N[C@@]2(c3cc(Br)ccc3Oc3c2cc(Cl)nc3F)c2cccnc21 (single isomer, unassigned) [Example 17c-1] | > 10000 | > 10000
26 | NC1=N[C@]2(c3cc(Br)ccc3Oc3c2cc(Cl)nc3F)c2cccnc21 (single isomer, unassigned) [Example 17c-2] | 3440 | > 10000
27 | NC1=NC2(c3cc(-c4cccnc4F)ccc3Oc3c2cc(Cl)nc3F)c2ccccc21 (centres unmarked) [Example 5d, 3-chloro-1-fluoro-7-(2-fluoropyridin-3-yl)spiro[chromeno[2,3-c]pyridine-5,1′-isoindol]-3′-amine] | 6 | 224
28 | NC1=N[C@]2(c3cc(-c4cccnc4F)ccc3Oc3c2cc(C2=CCCOC2)nc3F)c2cnccc21 [Example 14-E, (S)-3-(5,6-dihydro-2H-pyran-3-yl)-1-fluoro-7-(2-fluoropyridin-3-yl)spiro[chromeno[2,3-c]pyridine-5,3′-pyrrolo[3,4-c]pyridin]-1′-amine] | 0.5 | 2
29 | NC1=NC2(c3cc(Br)ccc3Oc3c2cc(Cl)nc3F)c2cnccc21 (centres unmarked) [Example 14c, 7-bromo-3-chloro-1-fluorospiro[chromeno[2,3-c]pyridine-5,3′-pyrrolo[3,4-c]pyridin]-1′-amine] | 4580 | > 10000
30 | NC1=NC2(c3cc(-c4cccnc4F)ccc3Oc3c2cc(Cl)nc3F)c2cnccc21 (centres unmarked) [Example 14d, 3-chloro-1-fluoro-7-(2-fluoropyridin-3-yl)spiro[chromeno[2,3-c]pyridine-5,3′-pyrrolo[3,4-c]pyridin]-1′-amine] | 3.7 | 771
31 | NC1=N[C@@]2(c3cc(-c4cccnc4F)ccc3Oc3c2cc(Cl)nc3F)c2cnccc21 [Example 14d-1, (R)-3-chloro-1-fluoro-7-(2-fluoropyridin-3-yl)spiro[chromeno[2,3-c]pyridine-5,3′-pyrrolo[3,4-c]pyridin]-1′-amine] | 6570 | > 10000
32 | NC1=N[C@]2(c3cc(-c4cccnc4F)ccc3Oc3c2cc(Cl)nc3F)c2cnccc21 [Example 14d-2, (S)-3-chloro-1-fluoro-7-(2-fluoropyridin-3-yl)spiro[chromeno[2,3-c]pyridine-5,3′-pyrrolo[3,4-c]pyridin]-1′-amine] | 2.5 | 35.5
33 | NC1=NC2(c3ccccc3O1)c1cc(-c3cccnc3F)ccc1Oc1cnc(-c3ccnc(F)c3)cc12 (centres unmarked) [Example 19, 7′-(2-fluoropyridin-3-yl)-3′-(2-fluoropyridin-4-yl)spiro[benzo[e][1,3]oxazine-4,5′-chromeno[2,3-c]pyridin]-2-amine] | 2 | 
